# US20020155172A1, “Methods and compounds for decreasing cell toxicity or death” (priority 2000, published 2002)
# System: GST-Q81 beads
# Assay: Chemical absorption assay, Q81
# Assay type: binding
# Settings: 25 μM of each (FIG. 6B)
# Protocol: FIG. 6B is a graph of the percent of binding of various compounds to amyloid-like Q81 aggregates measured using a chemical absorption assay. The anti-amyloid compounds minocycline, Chrysamine G, Rolitetracycline, iota carrageenan, dextran 500 (dextran), or Congo red (25 μM of each) were pre-absorbed with Q81 GST recombinant protein and the percentage absorbance of the compound remaining in the supernatant after absorption with GST-Q81 beads is plotted on the y-axis.
# To determine if Congo red and its derivatives directly bind to expanded polyglutamine aggregates, we designed a chemical absorption assay. This assay measures the remaining Congo red in the supernatant after incubating the supernatant with GST-tagged polyglutamine beads, and removing the GST-polyglutamine beads by centrifugation. This assay was carried out as follows. Recombinant protein GST-Q19, GST-Q62, and GST-Q81 (containing 19, 62, and 81 polyglutamines, respectively) was purified from E. coli by glutathione beads. After several washes with PBS containing protease inhibitors, the beads were allowed to settle to the bottom of the tube at 24° C. for 10 minutes. The polyglutamine-bound beads were aliquoted and diluted with two volumes of 10 μg/ml of Congo red in PBS. The beads were mixed and centrifuged at 15,000 rpm for 2 minutes and the supernatant was removed and diluted 1:100. The percentage absorbance of the compound remaining in the supernatant after absorption with the GST-polyQ beads was then detected. In addition, Congo red- or PBS-only treated polyglutamine polypeptide bead pellets were washed three times with 100 volumes of PBS and then the protein was separated by 12% polyacrylamide gels and immunoblotted as mentioned above. Some blots were used for immunostaining with anti-polyglutamine antibody (EM48). Other blots were left unstained to visualize the red color of Congo red that entered the gel along with the polyglutamine protein.
# Binding of the above-identified compounds to amyloid-like Q81 aggregates was also assessed by a chemical absorption assay. The compounds indicated in FIG. 19 (25 μM of each) were pre-absorbed with a Q81 GST recombinant protein and the percentage absorbance of the compound remaining in the supernatant after absorption with GST-Q81 beads was then detected.
structure (smiles),measurement,value
"Nc1c(/N=N/c2ccc(-c3ccc(/N=N/c4cc(S(=O)(=O)O)c5ccccc5c4N)cc3)cc2)cc(S(=O)(=O)O)c2ccccc12 [Congo red, diphenyldiazo-bis-alpha-napthylaminesulfonate]",binding to 81-repeat polyglutamine polypeptide,binds to expanded polyglutamines
